Data set [1] is described as follows: single dose, oral pharmacokinetic study in rats (total EPA plasma levels). The data set is classed as in vivo. From the text: The results of a single dose, oral pharmacokinetic study in rats for a compound of Formula III (designated TP-252, Mg-Lys2-EPA2) are shown in Table 1 below. One of the parameters shown in Table 1 is the area under the curve (AUC), which is the integral of a plot of concentration of drug in blood plasma against time. The AUC is proportional to the total amount of the active pharmaceutical agent (API) that reaches the blood circulation. In this example, the API (or analyte) is EPA. AUC and Cmax are given for the compound of Formula III, EPA free fatty acid (EPA FFA), and EPA ethyl ester (EPA EE). EPA ethyl ester is the FDA-approved form of EPA.

Data set [2] is described as follows: Physical stability study (proton NMR after exposure to air at room temperature). Type of data set: physicochemical. From the text: FIG. 1: Proton NMR spectrum of magnesium bis-lysinate bis-EPA taken on the day the compound was synthesized (upper trace) and 60-days later (lower trace) with the compound having been exposed to air at room temperature for the entire 60-day period.
The compounds of the invention are remarkably stable compared to omega-3 polyunsaturated free fatty acids, which typically show evidence of oxidative degradation with hours of exposure to atmospheric oxygen. […] The upper tracing in FIG. 1 is a proton NMR spectrum of magnesium bis-lysinate bis-EPA taken on the day the compound was synthesized. The lower tracing is the NMR taken 60-days later with the compound having been exposed to air at room temperature for the entire period.

Structures are written as SMILES.

As for `CC/C=C\C/C=C\C/C=C\C/C=C\C/C=C\CCCC(=O)O.CC/C=C\C/C=C\C/C=C\C/C=C\C/C=C\CCCC(=O)O.NCCCC[C@H](N)C(=O)[O-].NCCCC[C@H](N)C(=O)[O-].[Mg+2]` [TP-252, magnesium bis-lysinate bis-EPA dihydrate], in data set [1], the “EPA delivered to the blood plasma versus equivalent doses of EPA free fatty acid or EPA ethyl ester” value is “delivers significantly more EPA to the blood plasma”. Moreover, the “Baseline and EPA Molar Dose Equivalent Adjusted Cmax of Total EPA in plasma” value in data set [1] (total dose 40.0 mg/kg, analyte EPA, Cmax minus predose level, multiplied by EPA molar dose adjustment factor) was 13200 ng/mL. Also, in data set [1] (total dose 40.0 mg/kg, analyte EPA, baseline adjusted and multiplied by EPA molar dose adjustment factor), the Baseline and EPA Molar Dose Equivalent Adjusted AUC0-18 hrs of Total EPA in plasma came out at 133 µg·h/mL. In data set [2] (after 60 days exposed to air at room temperature versus day of synthesis), the “proton NMR evidence of oxidation or degradation” value is recorded as “no evidence of oxidation or degradation by other mechanisms”. Further, the time chemically stable in data set [2] (room temperature, exposed to air) is reported as “at least 60 days”.

The record behind these values is patent publication US9242008B2, “Mineral amino-acid complexes of fatty acids” (Thetis Pharmaceuticals LLC, priority 2014, dated 2016).
